Measured values as given in ChEMBL document CHEMBL3232964, “Quinone-carbohydrate nonglucoside conjugates as a new type of cytotoxic agents: synthesis and determination of in vitro activity” (Eur J Med Chem, 2014).
The source made the active and inactive calls. The calls are words filed in the database; no cut-off is given here.

Experiments:
[1] = Cytotoxicity against tumor promotion-sensitive mouse JB6 Cl41 cells assessed as cell viability after 48 hrs by MTS assay; type: cell-based; conditions: JB6 Cl41, 48 h
HeLa [2] = experiment: Cytotoxicity against human HeLa cells assessed as cell viability after 24 hrs by MTS assay; type: functional, cell-based
HeLa [3] = experiment: Cytotoxicity against human HeLa cells assessed as cell viability after 48 hrs by MTS assay; type: functional, cell-based
[4] = Cytotoxicity against tumor promotion-sensitive mouse JB6 Cl41 cells expressing luciferase reporter gene assessed as cell viability after 12 hrs by MTS assay; type: cell-based; conditions: jb6 cl41, 12 h
HeLa [5] = experiment: Cytotoxicity against human HeLa cells assessed as inhibition of number of colonies formed in soft agar after 14 days by microscopic analysis; type: functional
[6] = biological target: Cellular tumor antigen p53 (Mus musculus) (UniProt P02340); experiment: Inhibition of p53-dependent transcriptional activity in tumor promotion-sensitive mouse JB6 Cl41 cells after 12 hrs by luciferase-based method; type: cell-based
HeLa [7] = experiment: Ratio of IC50 to INCC50 for human HeLa cells; type: functional
[8] = Induction of apoptosis in tumor promotion-sensitive mouse JB6 Cl41 cells assessed as viable cells at 20 uM after 24 hrs by Annexin-V-FITC/propidium iodide staining based flow cytometry (reference value: 94.33 +/- 0.87%); type: cell-based; conditions: read-out: Activity
HeLa [9] = experiment: Induction of p53-independent apoptosis in human HeLa cells assessed as late apoptotic/necrotic cells at 5 uM after 24 hrs by Annexin-V-FITC/propidium iodide double staining based flow cytometry (reference value: 0.88 +/- 0.72%); type: functional
HeLa [10] = experiment: Induction of p53-independent apoptosis in human HeLa cells assessed as viable cells at 2.5 uM after 24 hrs by Annexin-V-FITC/propidium iodide double staining based flow cytometry (reference value: 88.52 +/- 11%); type: functional; conditions: read-out: Activity
[11] = Induction of apoptosis in tumor promotion-sensitive mouse JB6 Cl41 cells assessed as dead cells at 5 uM after 24 hrs by Annexin-V-FITC/propidium iodide staining based flow cytometry (reference value: 2.99 +/- 0.82%); type: cell-based; conditions: jb6 cl41, 24 h
[12] = Induction of apoptosis in tumor promotion-sensitive mouse JB6 Cl41 cells assessed as viable cells at 5 uM after 24 hrs by Annexin-V-FITC/propidium iodide staining based flow cytometry (reference value: 94.33 +/- 0.87%); type: cell-based; conditions: read-out: Activity
[13] = Induction of apoptosis in tumor promotion-sensitive mouse JB6 Cl41 cells assessed as viable cells at 2.5 uM after 24 hrs by Annexin-V-FITC/propidium iodide staining based flow cytometry (reference value: 94.33 +/- 0.87%); type: cell-based; conditions: read-out: Activity
HeLa [14] = experiment: Induction of p53-independent apoptosis in human HeLa cells assessed as early apoptotic cells at 10 uM after 24 hrs by Annexin-V-FITC/propidium iodide double staining based flow cytometry (reference value: 6.71 +/- 4.41%); type: functional
[15] = Induction of apoptosis in tumor promotion-sensitive mouse JB6 Cl41 cells assessed as early apoptotic cells at 2.5 uM after 24 hrs by Annexin-V-FITC/propidium iodide staining based flow cytometry (reference value: 2.15 +/- 1.18%); type: cell-based; conditions: jb6 cl41, 24 h
HeLa [16] = experiment: Induction of p53-independent apoptosis in human HeLa cells assessed as early apoptotic cells at 5 uM after 24 hrs by Annexin-V-FITC/propidium iodide double staining based flow cytometry (reference value: 6.71 +/- 4.41%); type: functional
HeLa [17] = experiment: Induction of p53-independent apoptosis in human HeLa cells assessed as viable cells at 5 uM after 24 hrs by Annexin-V-FITC/propidium iodide double staining based flow cytometry (reference value: 88.52 +/- 11%); type: functional; conditions: read-out: Activity
[18] = Induction of apoptosis in tumor promotion-sensitive mouse JB6 Cl41 cells assessed as dead cells at 20 uM after 24 hrs by Annexin-V-FITC/propidium iodide staining based flow cytometry (reference value: 2.99 +/- 0.82%); type: cell-based; conditions: jb6 cl41, 24 h
[19] = Induction of apoptosis in tumor promotion-sensitive mouse JB6 Cl41 cells assessed as viable cells at 10 uM after 24 hrs by Annexin-V-FITC/propidium iodide staining based flow cytometry (reference value: 94.33 +/- 0.87%); type: cell-based; conditions: read-out: Activity
HeLa [20] = experiment: Induction of p53-independent apoptosis in human HeLa cells assessed as early apoptotic cells at 20 uM after 24 hrs by Annexin-V-FITC/propidium iodide double staining based flow cytometry (reference value: 6.71 +/- 4.41%); type: functional
HeLa [21] = experiment: Induction of p53-independent apoptosis in human HeLa cells assessed as dead cells at 2.5 uM after 24 hrs by Annexin-V-FITC/propidium iodide double staining based flow cytometry (reference value: 3.89 +/- 0.3%); type: functional
HeLa [22] = experiment: Induction of p53-independent apoptosis in human HeLa cells assessed as late apoptotic/necrotic cells at 20 uM after 24 hrs by Annexin-V-FITC/propidium iodide double staining based flow cytometry (reference value: 0.88 +/- 0.72%); type: functional
HeLa [23] = experiment: Induction of p53-independent apoptosis in human HeLa cells assessed as late apoptotic/necrotic cells at 10 uM after 24 hrs by Annexin-V-FITC/propidium iodide double staining based flow cytometry (reference value: 0.88 +/- 0.72%); type: functional
HeLa [24] = experiment: Induction of p53-independent apoptosis in human HeLa cells assessed as early apoptotic cells at 2.5 uM after 24 hrs by Annexin-V-FITC/propidium iodide double staining based flow cytometry (reference value: 6.71 +/- 4.41%); type: functional
HeLa [25] = experiment: Induction of p53-independent apoptosis in human HeLa cells assessed as viable cells at 20 uM after 24 hrs by Annexin-V-FITC/propidium iodide double staining based flow cytometry (reference value: 88.52 +/- 11%); type: functional; conditions: read-out: Activity
[26] = Induction of apoptosis in tumor promotion-sensitive mouse JB6 Cl41 cells assessed as dead cells at 10 uM after 24 hrs by Annexin-V-FITC/propidium iodide staining based flow cytometry (reference value: 2.99 +/- 0.82%); type: cell-based; conditions: jb6 cl41, 24 h
HeLa [27] = experiment: Induction of p53-independent apoptosis in human HeLa cells assessed as viable cells at 10 uM after 24 hrs by Annexin-V-FITC/propidium iodide double staining based flow cytometry (reference value: 88.52 +/- 11%); type: functional; conditions: read-out: Activity
[28] = Induction of apoptosis in tumor promotion-sensitive mouse JB6 Cl41 cells assessed as late apoptotic/necrotic cells at 20 uM after 24 hrs by Annexin-V-FITC/propidium iodide staining based flow cytometry (reference value: 0.53 +/- 0.47%); type: cell-based; conditions: jb6 cl41, 24 h
[29] = Induction of apoptosis in tumor promotion-sensitive mouse JB6 Cl41 cells assessed as early apoptotic cells at 10 uM after 24 hrs by Annexin-V-FITC/propidium iodide staining based flow cytometry (reference value: 2.15 +/- 1.18%); type: cell-based; conditions: jb6 cl41, 24 h
[30] = Induction of apoptosis in tumor promotion-sensitive mouse JB6 Cl41 cells assessed as late apoptotic/necrotic cells at 2.5 uM after 24 hrs by Annexin-V-FITC/propidium iodide staining based flow cytometry (reference value: 0.53 +/- 0.47%); type: cell-based; conditions: jb6 cl41, 24 h
HeLa [31] = experiment: Induction of p53-independent apoptosis in human HeLa cells assessed as dead cells at 5 uM after 24 hrs by Annexin-V-FITC/propidium iodide double staining based flow cytometry (reference value: 3.89 +/- 0.3%); type: functional
[32] = Induction of apoptosis in tumor promotion-sensitive mouse JB6 Cl41 cells assessed as dead cells at 2.5 uM after 24 hrs by Annexin-V-FITC/propidium iodide staining based flow cytometry (reference value: 2.99 +/- 0.82%); type: cell-based; conditions: jb6 cl41, 24 h
[33] = Induction of apoptosis in tumor promotion-sensitive mouse JB6 Cl41 cells assessed as late apoptotic/necrotic cells at 5 uM after 24 hrs by Annexin-V-FITC/propidium iodide staining based flow cytometry (reference value: 0.53 +/- 0.47%); type: cell-based; conditions: jb6 cl41, 24 h
HeLa [34] = experiment: Induction of p53-independent apoptosis in human HeLa cells assessed as late apoptotic/necrotic cells at 2.5 uM after 24 hrs by Annexin-V-FITC/propidium iodide double staining based flow cytometry (reference value: 0.88 +/- 0.72%); type: functional
[35] = Induction of apoptosis in tumor promotion-sensitive mouse JB6 Cl41 cells assessed as early apoptotic cells at 20 uM after 24 hrs by Annexin-V-FITC/propidium iodide staining based flow cytometry (reference value: 2.15 +/- 1.18%); type: cell-based; conditions: jb6 cl41, 24 h
[36] = Induction of apoptosis in tumor promotion-sensitive mouse JB6 Cl41 cells assessed as late apoptotic/necrotic cells at 10 uM after 24 hrs by Annexin-V-FITC/propidium iodide staining based flow cytometry (reference value: 0.53 +/- 0.47%); type: cell-based; conditions: jb6 cl41, 24 h
[37] = Induction of apoptosis in tumor promotion-sensitive mouse JB6 Cl41 cells assessed as early apoptotic cells at 5 uM after 24 hrs by Annexin-V-FITC/propidium iodide staining based flow cytometry (reference value: 2.15 +/- 1.18%); type: cell-based; conditions: jb6 cl41, 24 h
HeLa [38] = experiment: Induction of p53-independent apoptosis in human HeLa cells assessed as dead cells at 20 uM after 24 hrs by Annexin-V-FITC/propidium iodide double staining based flow cytometry (reference value: 3.89 +/- 0.3%); type: functional
HeLa [39] = experiment: Induction of p53-independent apoptosis in human HeLa cells assessed as dead cells at 10 uM after 24 hrs by Annexin-V-FITC/propidium iodide double staining based flow cytometry (reference value: 3.89 +/- 0.3%); type: functional

Sequence of Cellular tumor antigen p53 (Mus musculus) (P02340 whole entry): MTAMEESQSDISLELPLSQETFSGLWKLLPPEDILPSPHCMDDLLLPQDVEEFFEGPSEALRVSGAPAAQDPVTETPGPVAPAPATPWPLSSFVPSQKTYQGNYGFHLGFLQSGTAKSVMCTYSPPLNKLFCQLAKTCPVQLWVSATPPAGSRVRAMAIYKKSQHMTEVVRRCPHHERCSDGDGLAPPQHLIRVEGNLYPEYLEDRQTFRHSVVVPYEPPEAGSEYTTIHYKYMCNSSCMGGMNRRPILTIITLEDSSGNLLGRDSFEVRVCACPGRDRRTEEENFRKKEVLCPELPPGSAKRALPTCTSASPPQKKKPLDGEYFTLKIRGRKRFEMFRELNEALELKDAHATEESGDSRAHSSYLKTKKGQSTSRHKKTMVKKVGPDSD

CO[C@H]1O[C@H](CO)[C@@H](O)[C@H](O)[C@H]1O
IC50 [1]: > 200 µM
IC50 (HeLa [2]): > 200 µM
IC50 (HeLa [3]): > 200 µM
Activity [4]: Non-toxic
INCC50 (HeLa [5]): >200 µM
inhibition [6]: inactive

O=C1C=CC(=O)c2c(O)cccc21 [JUGLONE]
IC50 [1]: 34.3 µM
IC50 (HeLa [2]): 68.5 µM
IC50 (HeLa [3]): 65.5 µM
INCC50 (HeLa [5]): 39.04 µM
inhibition [6]: Active
Ratio (HeLa [7]): 1.67

CO[C@H]1O[C@H](COC2=CC(=O)c3c(O)ccc(O)c3C2=O)[C@@H](O)[C@H](O)[C@H]1O
viability at 24 h, 20 µM [8]: 13.4%
Activity (HeLa [9]): 1.35%
viability at 2.5 µM (HeLa [10]): 87.4%
Activity [11]: 0.4%
viability at 24 h, 5 µM [12]: 88.8%
viability at 24 h, 2.5 µM [13]: 91.7%
Activity (HeLa [14]): 7.99%
Activity [15]: 1.84%
Activity (HeLa [16]): 6.44%
viability at 5 µM (HeLa [17]): 89.5%
Activity [18]: 31.75%
viability at 24 h, 10 µM [19]: 87.5%
Activity (HeLa [20]): 14.06%
Activity (HeLa [21]): 2.8%
Activity (HeLa [22]): 24.44%
Activity (HeLa [23]): 1.74%
Activity (HeLa [24]): 8.28%
IC50 [1]: 8.47 µM
viability at 20 µM (HeLa [25]): 30.1%
IC50 (HeLa [2]): 7.54 µM
Activity [26]: 3.17%
IC50 (HeLa [3]): 7.89 µM
viability at 10 µM (HeLa [27]): 87.5%
Activity [28]: 13.91%
Activity [29]: 7.41%
Activity [30]: 2.46%
Activity (HeLa [31]): 2.67%
Activity [32]: 2.99%
Activity [33]: 2.96%
Activity (HeLa [34]): 1.55%
INCC50 (HeLa [5]): 4.03 µM
Activity [35]: 40.96%
Activity [36]: 1.91%
inhibition [6]: Active
Activity [37]: 1.8%
Ratio (HeLa [7]): 1.96
Activity (HeLa [38]): 31.42%
Activity (HeLa [39]): 2.77%

COC1=CC(=O)c2cccc(O)c2C1=O
IC50 [1]: 1.48 µM
IC50 (HeLa [2]): 0.96 µM
IC50 (HeLa [3]): 1.04 µM
INCC50 (HeLa [5]): 0.61 µM
inhibition [6]: Active
Ratio (HeLa [7]): 1.7

COC1=CC(=O)c2c(O)cccc2C1=O
IC50 [1]: 1.93 µM
IC50 (HeLa [2]): 1.18 µM
IC50 (HeLa [3]): 1.29 µM
INCC50 (HeLa [5]): 0.59 µM
inhibition [6]: Active
Ratio (HeLa [7]): 2.19

CO[C@H]1O[C@H](COC2=CC(=O)c3cccc(O)c3C2=O)[C@@H](O)[C@H](O)[C@H]1O
Activity (HeLa [9]): 32.74%
viability at 2.5 µM (HeLa [10]): 54.8%
Activity [11]: 3.07%
viability at 24 h, 5 µM [12]: 21.2%
viability at 24 h, 2.5 µM [13]: 91.3%
Activity [15]: 4.81%
Activity (HeLa [16]): 18.51%
viability at 5 µM (HeLa [17]): 24.7%
Activity (HeLa [21]): 8.37%
Activity (HeLa [24]): 27.57%
IC50 [1]: 4.92 µM
IC50 (HeLa [2]): 2.34 µM
IC50 (HeLa [3]): 2.82 µM
Activity [30]: 1.28%
Activity (HeLa [31]): 24.08%
Activity [32]: 2.63%
Activity [33]: 1.06%
Activity (HeLa [34]): 9.27%
INCC50 (HeLa [5]): 1.47 µM
inhibition [6]: Active
Activity [37]: 74.65%
Ratio (HeLa [7]): 1.92
